Source: patent publication US20050013862A1, “Functional powders for oral delivery” (Vectura Limited, priority 2001, published 2005)

Test: Twin Stage Impinger fine particle fraction
Assay type: physicochemical
Settings: glass, 12.8 mm jet
Source text: A Twin Stage Impinger Apparatus (glass with a 12.8 mm jet) was used to determine the fine particle fraction of the formulations of Examples 10, 11 (steps 1 & 2), 11 (step 1 only), 14, and 15, with the following results: […]

## COc1ccc2c(c1)c(CC(=O)O)c(C)n2C(=O)c1ccc(Cl)cc1 [Raw indomethacin (pulverized), indomethacin]
  Average % Fine Particle Fraction at 601/min (n = 5): 3.89%
